Assay results from PubChem BioAssay (NCI).
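Method: 48-hour compound exposure of cells in 96-well plates, five concentrations, linear interpolation of endpoints. GI50 is the concentration that inhibits growth by half. Definition used: TGI = concentration required for complete inhibition of growth.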

Assays:
Assay in all cases: DTP human tumour cell line panel, 48 h
A498 renal = test system: A498 renal
HCT-15 colon = test system: HCT-15 colon
K-562 leukemia = test system: K-562 leukemia
MOLT-4 leukemia = test system: MOLT-4 leukemia
SF-539 CNS = test system: SF-539 CNS
SK-MEL-5 melanoma = test system: SK-MEL-5 melanoma
SW-620 colon = test system: SW-620 colon
U251 CNS = test system: U251 CNS
UO-31 renal = test system: UO-31 renal

| Structure (SMILES) | TGI (A498 renal) | TGI (HCT-15 colon) | TGI (K-562 leukemia) | TGI (MOLT-4 leukemia) | TGI (SF-539 CNS) | TGI (SK-MEL-5 melanoma) | TGI (SW-620 colon) | TGI (U251 CNS) | TGI (UO-31 renal) | GI50 (A498 renal) | GI50 (HCT-15 colon) | GI50 (K-562 leukemia) | GI50 (MOLT-4 leukemia) | GI50 (SF-539 CNS) | GI50 (SK-MEL-5 melanoma) | GI50 (SW-620 colon) | GI50 (U251 CNS) | GI50 (UO-31 renal) |
| --- | --- | --- | --- | --- | --- | --- | --- | --- | --- | --- | --- | --- | --- | --- | --- | --- | --- | --- |
| CC(=O)Nc1ccc(/C=C(\NC(=O)c2ccccc2)c2nc3ccc4c(c3[nH]2)C(=O)c2ccccc2C4=O)cc1 | > 100 µM | > 100 µM | > 100 µM | 49.3 µM | > 100 µM | > 100 µM | > 100 µM | > 100 µM | 9.17 µM |  |  |  |  |  |  |  |  |  |
| COc1ccc(OCC(=O)O)c2c1CCC(C(C)C)C2=O (stereo unspecified) | > 100 µM |  | > 100 µM | > 100 µM | > 100 µM | > 100 µM | > 100 µM | > 100 µM | > 100 µM |  |  |  |  |  |  |  |  |  |
| C/C(CN1C(=O)c2ccccc2C1=O)=N\NS(=O)(=O)c1cccc([N+](=O)[O-])c1 | > 100 µM | > 100 µM | > 100 µM | > 100 µM | > 100 µM | > 100 µM | > 100 µM | > 100 µM | > 100 µM |  |  |  |  |  |  |  |  |  |
| Cc1ccc(NC(=O)c2[nH]c(=S)nc(N)c2-c2ccccc2C)cc1C | > 100 µM | > 100 µM | > 100 µM | > 100 µM | > 100 µM | > 100 µM | > 100 µM | > 100 µM | > 100 µM |  |  |  |  |  |  |  |  |  |
| Cc1ccc(C)c(NC(=O)C(=O)C2C(=O)C3=C(CC2(C)C)Nc2ccccc2S3)c1 (stereo unspecified) |  | > 100 µM |  | > 100 µM | > 100 µM | > 100 µM | > 100 µM | > 100 µM | > 100 µM |  |  |  |  |  |  |  |  |  |
| O=C(Nc1ccc(S(=O)(=O)Nc2nccs2)cc1)c1cccnc1Nc1cccc(Cl)c1 | 23.7 µM | 27.5 µM | 41.1 µM | 88.9 µM | 44.5 µM | 23.5 µM | 28.7 µM | 26.1 µM | 32.3 µM | 10.1 µM | 13.5 µM | 10.4 µM | 12.5 µM | 16.2 µM | 11.3 µM | 14.2 µM | 13.2 µM | 13.8 µM |
| CN(C)CCNC(=O)c1ccc(Nc2nc3ccccc3c3occc23)cc1 | 28.1 µM | 4.75 µM | 17.1 µM | 5.17 µM | 3.7 µM | 14 µM | 25.8 µM | 6.35 µM | 16.2 µM | 12.3 µM | 2.12 µM | 4.29 µM | 2.75 µM | 1.83 µM | 3.96 µM | 5.96 µM | 2.45 µM | 3.82 µM |
| CCCCCCCCCCCCCS(=O)(=O)O | > 100 µM | > 100 µM |  |  | > 100 µM | > 100 µM | > 100 µM | > 100 µM | > 100 µM |  |  |  |  |  |  |  |  |  |
| Oc1ccc2ccccc2c1C=NCCCN=Cc1c(O)ccc2ccccc12 |  | 28.5 µM |  | 56.9 µM | 40.8 µM | 16 µM | 61.8 µM | 15.2 µM | 52.4 µM |  | 5.13 µM |  | 10.3 µM | 17.8 µM | 4.61 µM | 12.1 µM | 3.8 µM | 8.4 µM |
| C/C(=N\NC(=S)N1CCCCCC1)c1nccnc1C | 12.9 µM | > 100 µM | > 100 µM |  | 1.65 µM | 12.2 µM | > 100 µM | > 100 µM |  |  |  |  |  |  |  |  |  |  |
| CC(C)C(C(=O)O)N(CC1(O)OCC(O)C(O)C1O)N=O (stereo unspecified) | > 100 µM |  | > 100 µM | > 100 µM | > 100 µM | > 100 µM | > 100 µM | > 100 µM | > 100 µM |  |  |  |  |  |  |  |  |  |
| Cn1ncc(=S)[nH]c1=S | > 100 µM | > 100 µM | > 100 µM | > 100 µM | > 100 µM |  | > 100 µM | > 100 µM | > 100 µM |  |  |  |  |  |  |  |  |  |
| O=S(=O)([O-])[O-].[OH3+].[OH3+].[OH3+].[Ru+2].c1ccccc1 |  | > 100 µM | > 100 µM | > 100 µM | > 100 µM | > 100 µM |  | > 100 µM | > 100 µM |  | > 100 µM | > 100 µM | > 100 µM | > 100 µM | > 100 µM |  | > 100 µM | > 100 µM |
| COc1nc2c(OC)cccc2c(OC)c1C=O |  | > 100 µM | > 100 µM | > 100 µM | > 100 µM | > 100 µM | > 100 µM | > 100 µM | > 100 µM |  |  |  |  |  |  |  |  |  |
| CC(=O)N1CCC2(C=Nc3ccccc32)CC1 | > 100 µM | > 100 µM | > 100 µM | > 100 µM | > 100 µM | > 100 µM | > 100 µM | > 100 µM |  |  |  |  |  |  |  |  |  |  |
| Cn1ccnc1C(=O)/C=C/c1ccc(CC(=O)Nc2ccc(Cl)cc2)cc1 | > 25 µM | > 25 µM |  | > 25 µM | > 25 µM | > 25 µM | > 25 µM | > 25 µM | > 25 µM | > 25 µM | 0.999 µM |  | 1.74 µM | 6.4 µM | 14.4 µM | 1.25 µM | 1.1 µM | 2.27 µM |
| O=C(O)c1ccc(NC(=O)C2C(=O)C(=O)N(c3ccc(C(=O)O)cc3)C2=O)cc1 (stereo unspecified) | > 100 µM | > 100 µM | > 100 µM | > 100 µM | > 100 µM |  | > 100 µM | > 100 µM | > 100 µM |  |  |  |  |  |  |  |  |  |
